# Reference: patent US20260014232A1, “Pharmaceutical Composition of GLP-1 and GIP Receptor Dual Agonist and Use Thereof” (Jiangsu Hengrui Pharmaceuticals Co., Ltd., priority 2021, published 2026)
# Read-outs that look alike come from different tables or passages of the source. Starred links: 1 amine or outer side, 2 acyl side, 3 side chain; linkers in the order of their positions; H or OH if unused. Non-standard residues stand in square brackets, D forms with d. Residues, ends and D or L forms follow the SMILES beside them. Groups on a side chain read outwards from the residue. No end group written: not given here. *: point of attachment. C20 diacid = O=C(O)CCCCCCCCCCCCCCCCCCC(=O)*; Arachidoyl = CCCCCCCCCCCCCCCCCCCC(=O)*; γGlu = O=C(O)[C@H](CCC(=O)[*:2])N[*:1]; AEEA = NCCOCCOCC(=O)O; Aib = CC(C)(N)C(=O)O
# T1: human glucose-dependent insulinotropic polypeptide receptor (GIPR) (human, UniProt P48546 22-466)
# T1 sequence (looked up): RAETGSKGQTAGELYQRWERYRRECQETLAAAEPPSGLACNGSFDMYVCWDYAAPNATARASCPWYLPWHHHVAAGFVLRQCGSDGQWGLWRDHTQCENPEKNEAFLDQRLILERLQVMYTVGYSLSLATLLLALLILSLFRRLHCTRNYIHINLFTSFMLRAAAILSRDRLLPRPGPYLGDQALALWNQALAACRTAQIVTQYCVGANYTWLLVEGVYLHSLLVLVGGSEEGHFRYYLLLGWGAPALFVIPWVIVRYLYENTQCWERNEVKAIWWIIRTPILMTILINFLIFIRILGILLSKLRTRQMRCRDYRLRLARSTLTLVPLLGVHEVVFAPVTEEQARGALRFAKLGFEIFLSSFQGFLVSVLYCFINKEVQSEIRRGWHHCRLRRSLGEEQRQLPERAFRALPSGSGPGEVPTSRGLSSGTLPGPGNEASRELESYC
# B1: compound 17# (peptide)
# peptide: Y[Aib]EGTFTSDYSIYK([AEEA-AEEA-γGlu-Arachidoyl])ERIAAQEFVNWLLAGGPSSGAPPPS-NH2
# modifications: N-terminus assumed
# SMILES: CCCCCCCCCCCCCCCCCCCC(=O)N[C@@H](CCC(=O)NCCOCCOCC(=O)NCCOCCOCC(=O)NCCCC[C@H](NC(=O)[C@H](Cc1ccc(O)cc1)NC(=O)[C@@H](NC(=O)[C@H](CO)NC(=O)[C@H](Cc1ccc(O)cc1)NC(=O)[C@H](CC(=O)O)NC(=O)[C@H](CO)NC(=O)[C@@H](NC(=O)[C@H](Cc1ccccc1)NC(=O)[C@@H](NC(=O)CNC(=O)[C@H](CCC(=O)O)NC(=O)C(C)(C)NC(=O)[C@@H](N)Cc1ccc(O)cc1)[C@@H](C)O)[C@@H](C)O)[C@@H](C)CC)C(=O)N[C@@H](CCC(=O)O)C(=O)N[C@@H](CCCNC(=N)N)C(=O)N[C@H](C(=O)N[C@@H](C)C(=O)N[C@@H](C)C(=O)N[C@@H](CCC(N)=O)C(=O)N[C@@H](CCC(=O)O)C(=O)N[C@@H](Cc1ccccc1)C(=O)N[C@H](C(=O)N[C@@H](CC(N)=O)C(=O)N[C@@H](Cc1c[nH]c2ccccc12)C(=O)N[C@@H](CC(C)C)C(=O)N[C@@H](CC(C)C)C(=O)N[C@@H](C)C(=O)NCC(=O)NCC(=O)N1CCC[C@H]1C(=O)N[C@@H](CO)C(=O)N[C@@H](CO)C(=O)NCC(=O)N[C@@H](C)C(=O)N1CCC[C@H]1C(=O)N1CCC[C@H]1C(=O)N1CCC[C@H]1C(=O)N[C@@H](CO)C(N)=O)C(C)C)[C@@H](C)CC)C(=O)O
# B2: compound 7# (peptide)
# peptide: Y[Aib]EGTFTSDYSIYK([AEEA-AEEA-γGlu-Arachidoyl])DKIAAQEFVNWLLAGGPSSGAPPPS-NH2
# B3: compound 18# (peptide)
# peptide: Y[Aib]EGTFTSDYSIYK([AEEA-AEEA-γGlu-Arachidoyl])EKIAAQEFVNWLLAGGPSSGAPPPS-NH2
# B4: compound 16# (peptide)
# peptide: Y[Aib]EGTFTSDYSIYK([AEEA-AEEA-γGlu-Arachidoyl])EKIAAQEFINWLLAGGPSSGAPPPS-NH2
# modifications: N-terminus assumed
# SMILES: CCCCCCCCCCCCCCCCCCCC(=O)N[C@@H](CCC(=O)NCCOCCOCC(=O)NCCOCCOCC(=O)NCCCC[C@H](NC(=O)[C@H](Cc1ccc(O)cc1)NC(=O)[C@@H](NC(=O)[C@H](CO)NC(=O)[C@H](Cc1ccc(O)cc1)NC(=O)[C@H](CC(=O)O)NC(=O)[C@H](CO)NC(=O)[C@@H](NC(=O)[C@H](Cc1ccccc1)NC(=O)[C@@H](NC(=O)CNC(=O)[C@H](CCC(=O)O)NC(=O)C(C)(C)NC(=O)[C@@H](N)Cc1ccc(O)cc1)[C@@H](C)O)[C@@H](C)O)[C@@H](C)CC)C(=O)N[C@@H](CCC(=O)O)C(=O)N[C@@H](CCCCN)C(=O)N[C@H](C(=O)N[C@@H](C)C(=O)N[C@@H](C)C(=O)N[C@@H](CCC(N)=O)C(=O)N[C@@H](CCC(=O)O)C(=O)N[C@@H](Cc1ccccc1)C(=O)N[C@H](C(=O)N[C@@H](CC(N)=O)C(=O)N[C@@H](Cc1c[nH]c2ccccc12)C(=O)N[C@@H](CC(C)C)C(=O)N[C@@H](CC(C)C)C(=O)N[C@@H](C)C(=O)NCC(=O)NCC(=O)N1CCC[C@H]1C(=O)N[C@@H](CO)C(=O)N[C@@H](CO)C(=O)NCC(=O)N[C@@H](C)C(=O)N1CCC[C@H]1C(=O)N1CCC[C@H]1C(=O)N1CCC[C@H]1C(=O)N[C@@H](CO)C(N)=O)[C@@H](C)CC)[C@@H](C)CC)C(=O)O
# How the values were obtained:
# [1] = target: human glucose-dependent insulinotropic polypeptide receptor (GIPR) (human) (UniProt P48546); assay: cell-based or functional assay
# [2] = Stability of compounds in human plasma (LC-MS); format: in vitro ADME
# Procedure: 5 μL of each of samples at concentrations of 20 ng/ml, 50 ng/ml, 100 ng/ml, 200 ng/ml, 500 ng/mL, 1000 ng/mL, 2000 ng/mL, 5000 ng/mL, and 10000 ng/mL was added to 45 μL of human plasma. The content of the compounds in the samples was determined by the LC-MS method and a standard curve was formed. 5 μL of a 1 mg/mL polypeptide solution was added to 45 μL of human plasma. […] With the content at 0 min as the standard (100%), the relative content of the retained compounds in the samples at other time points was calculated.
# [3] = Blood glucose in normal mice after single subcutaneous administration and intraperitoneal glucose; format: in vivo, C57BL/6 mice; conditions: for Blood glucose: glucose i.p. 18 h later, mean ± SD
# Procedure: 18 h later, a glucose solution at a concentration of 0.2 g/mL was intraperitoneally injected. Blood glucose values were measured by collecting blood from the tail of mice at time points of 0 min, 15 min, 30 min, 60 min, and 120 min according to the experimental design. The specific procedures were as follows: the mouse was physically immobilized with the tail exposed, a little part was cut off at the tail end, then the tail was squeezed to bleed, and blood glucose was determined using a Roche active glucometer after the 1st drop of blood was discarded. The area under the blood glucose curve (AUC) was calculated from the results of all time points.
# [4] = Body weight of diet-induced-obesity mice after subcutaneous administration; format: in vivo, C57BL/6 mice; conditions: induced-obesity mice, 10 nmol/kg
# Procedure: High-fat food-induced-obesity male C57BL/6 mice (weighing 35-55 g, aged 10-12 weeks, purchased from Shanghai Jiesijie Laboratory Animal Co., Ltd.) were tested. […] According to the experimental design, the body weight of each mouse was measured and recorded on day 0, day 3, day 6, and so on to day 27, the average body weight of each group of mice was calculated, and body weight change curves were plotted by taking the body weight on the first day as the standard. At the end, the fat and other visceral organs of each part of the mice were taken out and weighed, and the viscera/brain ratio for fat in each part of each mouse was calculated. The effect of the drug on the fat was determined by comparing the change in the viscera/brain ratio for fat of different parts of each group of mice.
# [5] = target: T2, human glucagon-like peptide-1 receptor (GLP-1R) (human, UniProt P43220 24-463); assay: cell-based or functional assay
# [6] = target: T1, human glucose-dependent insulinotropic …; assay: cell-based or functional assay
# [7] = target: T2, human glucagon-like peptide-1 receptor …; assay: cell-based or functional assay; remark: listed apart in the source
# [8] = target: T1, human glucose-dependent insulinotropic …; assay: cell-based or functional assay; remark: listed apart in the source
molecule,measurement,setting,value
Semaglutide (peptide),"Activity against human GIPR (EC50 nM); cAMP HTRF, CHO-K1 cells overexpressing hGIP receptor",[1],> 10 nM
Natural GIP (from UniProt P09681 52-93) (ligand),"Activity against human GIPR (EC50 nM); cAMP HTRF, CHO-K1 cells overexpressing hGIP receptor",[1],0.006 nM
CC[C@H](C)[C@H](NC(=O)[C@H](CCCCN)NC(=O)[C@H](CC(=O)O)NC(=O)[C@H](CCCCNC(=O)COCCOCCNC(=O)COCCOCCNC(=O)CC[C@H](NC(=O)CCCCCCCCCCCCCCCCCCC(=O)O)C(=O)O)NC(=O)[C@H](Cc1ccc(O)cc1)NC(=O)[C@@H](NC(=O)[C@H](CO)NC(=O)[C@H](Cc1ccc(O)cc1)NC(=O)[C@H](CC(=O)O)NC(=O)[C@H](CO)NC(=O)[C@@H](NC(=O)[C@H](Cc1ccccc1)NC(=O)[C@@H](NC(=O)CNC(=O)[C@H](CCC(=O)O)NC(=O)C(C)(C)NC(=O)[C@@H](N)Cc1ccc(O)cc1)[C@@H](C)O)[C@@H](C)O)[C@@H](C)CC)C(=O)N[C@@H](C)C(=O)N[C@@H](C)C(=O)N[C@@H](CCC(N)=O)C(=O)N[C@@H](CCC(=O)O)C(=O)N[C@@H](Cc1ccccc1)C(=O)N[C@H](C(=O)N[C@@H](CC(N)=O)C(=O)N[C@@H](Cc1c[nH]c2ccccc12)C(=O)N[C@@H](CC(C)C)C(=O)N[C@@H](CC(C)C)C(=O)N[C@@H](C)C(=O)NCC(=O)NCC(=O)N1CCC[C@H]1C(=O)N[C@@H](CO)C(=O)N[C@@H](CO)C(=O)NCC(=O)N[C@@H](C)C(=O)N1CCC[C@H]1C(=O)N1CCC[C@H]1C(=O)N1CCC[C@H]1C(=O)N[C@@H](CO)C(N)=O)C(C)C [Compound 7#] (H-Y[Aib]EGTFTSDYSIYK([AEEA-AEEA-γGlu-C20 diacid])DKIAAQEFVNWLLAGGPSSGAPPPS-NH2),Relative content of compounds retained in plasma,[2]; 0 min,100.00%
same,Relative content of compounds retained in plasma,[2]; 240 min,102.15%
same,area under the blood glucose curve reduced compared with placebo,[3]; 10 nmol/kg,more than 60%
same,AUC (area under the blood glucose curve),"[3]; 10 nmol/kg s.c., 0-120 min",10.7 ± 1.8 mmol·h/L
same,Blood glucose,"[3]; 10 nmol/kg s.c., 0 min",4.4 ± 0.8 mmol/L
same,Blood glucose,"[3]; 10 nmol/kg s.c., 15 min",6.7 ± 0.8 mmol/L
same,Blood glucose,"[3]; 10 nmol/kg s.c., 30 min",6.2 ± 1.3 mmol/L
same,Blood glucose,"[3]; 10 nmol/kg s.c., 60 min",5.7 ± 1.2 mmol/L
same,Blood glucose,"[3]; 10 nmol/kg s.c., 120 min",3.8 ± 1.1 mmol/L
same,Body weight change,"[4]; Day 1, mean ± SD",0%
same,Body weight change,"[4]; Day 4, mean ± SD",−11.0 ± 1.0%
same,Body weight change,"[4]; Day 7, mean ± SD",−17.6 ± 2.6%
same,Body weight change,"[4]; Day 10, mean ± SD",−22.6 ± 5.9%
same,Body weight change,"[4]; Day 13, mean ± SD",−22.3 ± 6.3%
same,Body weight change,"[4]; Day 16, mean ± SD",−22.7 ± 6.9%
same,Body weight change,"[4]; Day 19, mean ± SD",−25.9 ± 6.2%
same,Body weight change,"[4]; Day 22, mean ± SD",−23.9 ± 5.6%
same,Body weight change,"[4]; Day 25, mean ± SD",−23.9 ± 5.6%
same,Body weight change,"[4]; Day 28, mean ± SD",−25.5 ± 5.3%
B1,"Activity against human GLP-1R (EC50 nM); cAMP HTRF, CHO-K1/GLP-1R/CRE-luc cells",[5],0.022 nM
same,"Activity against human GIPR (EC50 nM); cAMP HTRF, CHO-K1 cells overexpressing hGIP receptor",[6],0.11 nM
B2,"Activity against human GLP-1R (EC50 nM); cAMP HTRF, CHO-K1/GLP-1R/CRE-luc cells",[7],0.021 nM
same,"Activity against human GIPR (EC50 nM); cAMP HTRF, CHO-K1 cells overexpressing hGIP receptor",[8],0.11 nM
B3,"Activity against human GLP-1R (EC50 nM); cAMP HTRF, CHO-K1/GLP-1R/CRE-luc cells",[5],0.013 nM
same,"Activity against human GIPR (EC50 nM); cAMP HTRF, CHO-K1 cells overexpressing hGIP receptor",[6],0.06 nM
B4,"Activity against human GLP-1R (EC50 nM); cAMP HTRF, CHO-K1/GLP-1R/CRE-luc cells",[5],0.029 nM
same,"Activity against human GIPR (EC50 nM); cAMP HTRF, CHO-K1 cells overexpressing hGIP receptor",[6],0.095 nM
